Counter-ions that a name gives are not always drawn.
Experiments:
[1] = test system: HT-29 colorectal cancer xenograft; test: HT-29 xenograft study; format: in vivo, mouse; conditions: 17 days, PAV-951 3 mg kg^−1 IV, Irinotecan 60 mg kg^−1 IP
Experimental: In the second animal efficacy study, human HT-29 colorectal adenocarcinoma cells were grafted subcutaneously onto mice. After tumour establishment, the animals received treatment with vehicle, 3 mg kg^−1 PAV-951 or 60 mg kg^−1 of a positive control drug Irinotecan. […]. Survival was not assessed as part of the study.
HT-29 cells growing in HBSS medium were suspended in Matrigel. 0.1 ml of the cell suspension containing 5 × 10^6 cells were injected subcutaneously into the left flank region of male, 6–8 week old SCID mice. After tumour establishment, animals were divided randomly into groups of six and treated daily by IV with vehicle daily for 17 days, 3 mg kg^−1 PAV-951 three times per week for 17 days, or treated by IP with 60 mg kg^−1 Irinotecan every 4 days for 14 days. Tumour volume was calculated using the formula: (L × W2)/2 where L is the largest diameter and W is the smallest diameter of the tumour. Statistical analysis was performed using GraphPad Prism (Ver. 5.03). Statistical analysis of tumour growth inhibition between the Control and Treated groups was performed by using ne-way ANOVA followed by Dunnett’s test.

A549 = test: In-house cancer cell viability screen (AlamarBlue); format: cell-based, human; conditions: for change of potency when compound is added at the time of plating rather than 24 h later: A549; for IC50: Homo sapiens, AlamarBlue
A549 and MRC-5 cells = test: Toxicity to A549 cancer line versus non-cancer MRC-5 cells; format: cell-based
[2] = Mouse pharmacokinetics (plasma and lung); format: in vivo; conditions: PAV-621 5 mg kg^−1 IP versus PAV-951 2.5 mg kg^−1 IV
Experimental: Pharmacokinetic (PK) studies were conducted in male Sprague Dawley Rats aged 8–10 weeks or male CD1 mice aged 5–6 weeks or Balb/c nude mice. Treatment groups were made up of four animals each and dosing regimens for disclosed data is provided. Animals were sacrificed at the end of the study period using an overdose of CO2. PK studies were conducted at Vipragen Biosciences Private Limited or Pharmaron in accordance with the CPCSEA guidelines and ARRIVE guidelines.
CD1 or Balb/c nude mice aged 6–8 weeks were randomly divided into treatment groups with three animals per group. Animals in each treatment group were weighed and received either one […] intravenous dose of either vehicle (10% DMSO, 45% propylene glycol, 45% sterile water) or 2.5 mg kg^−1 PAV-951, or one intraperitoneal dose of either vehicle ([…] 10% DMSO, 45% propylene glycol, 45% sterile water) or 5 mg kg^−1 PAV-621. Animals were sacrificed after 1 h, 4 h, 8 h, 24 h post-dosing. Concentration of drug in the plasma and lung over time was measured using a Waters Acquity TQD LCMS/MS. Maximum concentration (Cmax) was determined to be the maximum concentration detected in a dataset. Half life, area under the curve and mean residence time were calculated with Phoenix WinNolin software.

NCI-60 cancer cell lines = conditions: for anti-cancer activity in NCI-60 single-dose testing: single dose 2.5 µM
in vivo = conditions: female, Balb/c, mouse, ip
Mpox Zaire 79 = format: cell-based, Mpox virus; conditions: read-out: EC50 against Mpox
[3] = test system: BB1 patient biopsy derived cell line (benign adenoma); test: BB1 and BB5 adenoma versus carcinoma screen (confocal imaging); format: cell-based, human; conditions: 60 h, percent ChromaLive negative
Hennes 20 cells [4] = test: High density/low density 'arrest of proliferation' assay; format: cell-based, Chinese hamster; conditions: Hennes 20, 72 h, AlamarBlue
Hennes 20 cells [5] = test: Cell growth recovery assay; format: cell-based, Chinese hamster; conditions: PAV-617 0.3 µM 24 h, PAV-951 0.4 µM 6 h, followed to day 14
Experimental: To confirm that the inhibition observed in low-density Hennes 20 cells resulted from temporary arrest of proliferation and not cell death, compound was removed after a period of treatment and cell growth was measured over the subsequent two weeks for recovery potential. Once compound was removed, following a period of recovery, cell proliferation was restored over time for both chemotypes (see figure 1f,g). By day 11, cell density in compound-treated cells had caught up to that in the DMSO-treated cells (see figure 1f,g).
A 96-well plate was seeded with either Hennes 20 or LNCaP C-33 cells at 500 cells per well in 90 µl of minimum essential media and incubated at 37°C for 24 h. 0.5% DMSO was diluted in media and added to six control wells for each plate. PAV-617 was diluted in media and added to three wells at a concentration of 0.3 µM. PAV-951 was diluted in media and added to concentration of 0.4 µM. After 24 h of PAV-617 treatment or 6 h of PAV-951 treatment, the medium containing compound was removed and replaced with fresh media. After 72 h (day 5), plates were assayed with AlamarBlue and fluorescence was read at 530/590. The medium containing AlamarBlue was removed and replaced with fresh media. After another 72 h (day 8) plates were assayed with AlamarBlue and fluorescence again, then medium containing AlamarBlue was removed and replaced with fresh media. […]

LNCaP C-33 cells = test: Cell growth recovery assay; format: cell-based, human; conditions: PAV-617 0.3 µM 24 h, PAV-951 0.4 µM 6 h, followed
[6] = test system: A549 human lung cancer xenograft; test: A549 xenograft studies; conditions: for tumour growth inhibition (TGI): A549 xenograft, Gemcitabine 100 mg kg^−1 twice weekly
[7] = mouse MTD; cited from earlier work
[8] = PAV-617 study, 28 days, IP, PAV-617 10 mg kg^−1 once daily

CCc1c2c(nc3ccc(OC(=O)N4CCC(N5CCCCC5)CC4)cc13)-c1cc3c(c(=O)n1C2)COC(=O)[C@]3(O)CC [Irinotecan, reference compound]
tumour growth inhibition (TGI) [1]: 108%

CCCCNc1ncnc2cc(N3CCN(c4ccc5c(NCCCC)ncnc5c4)CC3)ccc12 [PAV-621]
change of potency when compound is added at the time of plating rather than 24 h later (A549): increased potency
toxicity to A549 cancer line compared with non-cancer MRC-5 cells (A549 and MRC-5 cells): selectively toxic to the A549 cancer line
exposure in the lung [2]: comparable exposure with PAV-951
anti-cancer activity in NCI-60 single-dose testing (NCI-60 cancer cell lines): improvements relative to PAV-951
MTD at 72 h (in vivo): 7.5 mg/kg

3,7-Di(pyrrolidin-1-yl) phenothiazinium iodide [PAV-617]
EC50 (Mpox Zaire 79): 0.201 µM
IC50 [3]: 0.81 µM
inhibitory effect at low (500 cells per well) versus high (15 000 cells per well) density (Hennes 20 cells [4]): difference between their inhibitory effects on low and high density-plated Hennes 20 cells
recovery of cell growth after removal of compound (Hennes 20 cells [5]): recovered over time
recovery of cell growth after removal of compound (LNCaP C-33 cells): did not recover
dose inhibiting growth relative to vehicle-treated cells (GI50) (NCI-60 cancer cell lines; for more than 40 cell lines): 2–3 digit nanomolar range
CC50 (NCI-60 cancer cell lines; read-out: dose required to decrease cell viability below that at the time compound was added (LC50), for at least 40 cell lines): > 100 µM
tumour growth inhibition (TGI) [6, 8]: 63%
adverse effects at the doses of the xenograft studies ([6]; clinical signs, weight loss, histopathological changes, blood cell count): without any serious adverse effects

cisplatin
MTD [7]: 6 mg/kg

c1ccc(CCNc2ncnc3cc(N4CCN(c5ccc6c(NCCc7ccccc7)ncnc6c5)CC4)ccc23)cc1 [PAV-436]
anti-cancer activity in NCI-60 single-dose testing (NCI-60 cancer cell lines): lost all anti-cancer activity on all cell lines examined

Nc1ccn([C@@H]2O[C@H](CO)[C@@H](O)C2(F)F)c(=O)n1 [Gemcitabine, Gemcitabine hydrochloride, reference compound]
change of potency when compound is added at the time of plating rather than 24 h later (A549): did not significantly affect
IC50 (A549; A549 (treatment 0 h after plating)): 3.01 µM
IC50 (A549; A549 (treatment 24 h after plating), 72 h): 3.92 µM
tumour growth inhibition (TGI) [6, 8]: 64%
tumour growth inhibition (TGI) ([6]; PAV-951 study, 14 days, IV, PAV-951 1.5 mg kg^−1 once daily): 84%

CCC1=C[C@@H]2CN(C1)Cc1c([nH]c3ccccc13)[C@@](C(=O)OC)(c1cc3c(cc1OC)N(C)[C@H]1[C@@](O)(C(=O)OC)[C@H](OC(C)=O)[C@]4(CC)C=CCN5CC[C@]31[C@@H]54)C2 [Vinorelbine]
MTD [7]: 10 mg/kg

Source: article PMC11651915, “Small molecule protein assembly modulators with pan-cancer therapeutic efficacy” (Open Biology, 2024)
